For assay [1], the system named is 143B cells. In words: Detection of ATP level. Conditions: CCCP 40 μM 6 h, positive control, control = 100%. The format is cell-based, human. As to the method: (§1) 20 mm confocal dishes, and cultured for 12 h at a density of 1×10^5 cells/well. Then, 200 µL of H4-PEG-PT (64 µM) was introduced into the confocal dishes. After 7 h incubation, 143B and HepG2 cells were washed twice with PBS, stained with Hoechst staining kit in PBS for 20 min. The tumor cell samples were immediately examined by an inverted Zeiss Axiovert 200 fluorescence microscopy at a 20× objective, using a high-pressure mercury lamp as an excitation source.
(§2) 143B cells (6×103) were incubated in 96 wells plate at 37 °C for 12 h. Then, cells were treated with 64 μM H4-PEG-PT or 40 μM CCCP for 6 h and irradiated by an 808 nm laser for 3 min each well. After irradiation, ATP level was immediately determined by an ATP determination kit (cat. no. A22066) from Thermo Fisher Scientific with 1% Triton X 100 water solution for cell permeabilization. After 10 min incubation, the luminescence intensity was then detected using a microplate reader (TECAN, Infinite M200 […]
(§3) Detection of mitochondrial membrane potential by JC-1 assay
(§4) 143B cells (6×103) were incubated in 96 wells plate for 12 h. Then, cells were treated with H4-PEG-PT (64 μM), or CCCP (40 μM) for 6 h and irradiated by an 808 nm laser for 3 min. […] Fluorescence intensity was then detected using a microplate reader (TECAN, Infinite M200 Pro) with excitation at 485 nm (green) or 535 nm (red) and emissions at 535 nm (green) or 595 nm (red). […]

The test system of assay [2] is 143B cells. In words: Mitochondrial membrane potential by JC-1 assay. The assay is classed as cell-based, human. Conditions: CCCP 40 μM 6 h, positive control, control = 100%. As to the method: as §1, §2, §3, §4
Assay [3] deals with mitochondria of 143B cells. The experiment in a line: Mitochondrial colocalization by confocal laser scanning microscopy. The format is cell-based, human. Conditions: concentrations lower than 10 nM, same experimental conditions. As to the method:
[…] Scale bar: 10 μm. Results in (a–f) are representative of three independent experiments.
143B (50,000 cells) were seeded in round discs and incubated in 1 mL of DMEM medium (pH = 7.4) containing 10% FBS for 24 h. After replacing the medium with 1 mL of fresh medium, 3k-PEG, H4-PEG, and H4-PEG-PT were added, respectively, and the cells were allowed to incubate for 6 h. After removing the medium and subsequently washing with PBS buffer (pH = 7.4) thrice, mitotracker green was added to stain the mitochondria for 30 min. The cells were viewed under a FV1200 CLSM (Olympus) and Leica SPE.

Assay [4] concerns osteosarcoma cell lines (e.g., 143B cells). The note with it: cited from earlier work. An excerpt: Osteosarcoma is the third most common malignant tumor and accounts for more than 60% of all malignant bone tumors in children and adolescents. Surgical excision of all primary and metastatic tumors remains the essential strategy behind osteosarcoma treatment. However, current diagnostic tools allow detection of only 8–15% of bone or lung metastatic patients[52],[53]. Thus, it is urgent to develop new theranostic strategies for early diagnosis, therapy, and monitoring responses to osteosarcoma therapies[54],[55]. The oligopeptide PPSHTPT (PT) was first designed to mimic the properties of th ...

For the compound `N#CC(C#N)=NNc1cccc(Cl)c1` [CCCP, carbonyl cyanide m-chlorophenylhydrazone], the “cellular ATP level” value with 143B cells [1] is listed as ~ 78%. In addition, the “ratio of J-aggregates to monomers” value in the assay on 143B cells [2] is 63%. With `CN1/C(=C/C=C/c2n(Cc3ccc(CCl)cc3)c3cc(Cl)c(Cl)cc3[n+]2Cc2ccc(CCl)cc2)Oc2ccccc21` [Mitotracker Green], the “fluorescent intensity in mitochondrial imaging” value in assay [3] is reported as “too weak to be detected”. Take “PPSHTPT [osteosarcoma-targeting oligopeptide PPSHTPT, mimics osteocalcin]”: in assay [4], the “affinity and specificity for osteosarcoma cell lines” value was “high affinity and specificity”.

Values taken from publication PMC7713230, “Upconversion NIR-II fluorophores for mitochondria-targeted cancer imaging and photothermal therapy” (Nature Communications, 2020).
